Measurements as given in ChEMBL document CHEMBL1201862, “PubChem BioAssay data set” (2004).
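Method: 48-hour compound exposure of cells in 96-well plates, five concentrations, linear interpolation of endpoints. Abbreviation: GI50, concentration required for 50% inhibition of growth.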 Active and inactive are the calls of the source. Cut-off read from the data, not from the text of the source: active = GI50 up to about 1.1 µM and inactive = higher.

Legend:
Test in all cases: NCI anticancer screen, dose series, 48 h
[1] = test system: DLD-1
[2] = test system: DMS-273
[3] = test system: KM-20L2
[4] = test system: LXFL 529
[5] = test system: M19-MEL
[6] = test system: HOP-18
[7] = test system: RXF 631
[8] = test system: SNB-78
[9] = test system: XF498

SMILES: COC(=O)C1=C(SC)SC2(C(=O)OC)C3C=C(C)C4C(N13)C42C(=O)OC (stereo unspecified)
- GI50 [1]: > 100 µM (inactive)
- GI50 [2]: > 100 µM (inactive)
- GI50 [3]: > 100 µM (inactive)
- GI50 [4]: > 100 µM (inactive)
- GI50 [5]: > 100 µM (inactive)

SMILES: O=C1O/C(=C(/c2ccc(Cl)cc2)c2nc3ccccc3[nH]2)C(O)=C1c1ccc(Cl)cc1
- GI50 [1]: 3.05 µM (inactive)
- GI50 [2]: 2.08 µM (inactive)
- GI50 [6]: 2.09 µM (inactive)
- GI50 [3]: 2.38 µM (inactive)
- GI50 [4]: 2.65 µM (inactive)
- GI50 [7]: 0.891 µM (active)
- GI50 [8]: 4 µM (inactive)

SMILES: Cc1c2[nH]c3ccc(Br)cc3c2c(C)c2nccc(O)c12
- GI50 [1]: 27.9 µM (inactive)
- GI50 [2]: 12.2 µM (inactive)
- GI50 [6]: 10.8 µM (inactive)
- GI50 [5]: 14.6 µM (inactive)
- GI50 [8]: 16.2 µM (inactive)
- GI50 [9]: 16.1 µM (inactive)

SMILES: COc1cc2c(cc1OC)C(C#N)(Cc1ccccc1)N(C(=O)c1ccccc1)C=C2 (stereo unspecified)
- GI50 [2]: 60.7 µM (inactive)
- GI50 [6]: > 100 µM (inactive)
- GI50 [3]: 67.3 µM (inactive)
- GI50 [4]: 39.4 µM (inactive)
- GI50 [5]: 96.6 µM (inactive)
- GI50 [7]: 45.3 µM (inactive)
- GI50 [8]: > 100 µM (inactive)
- GI50 [9]: 8.15 µM (inactive)

SMILES: COC1=CC(O)(CC(N)=O)c2ccccc2C1=O (stereo unspecified)
- GI50 [1]: > 100 µM (inactive)
- GI50 [2]: > 100 µM (inactive)
- GI50 [6]: > 100 µM (inactive)
- GI50 [3]: > 100 µM (inactive)
- GI50 [4]: > 100 µM (inactive)
- GI50 [5]: > 100 µM (inactive)
- GI50 [7]: > 100 µM (inactive)
- GI50 [8]: > 100 µM (inactive)
- GI50 [9]: > 100 µM (inactive)

SMILES: CC(=O)O[C@H]1CCC2[C@@H]3CCC4C(=O)c5oncc5C[C@]4(C)C3CC[C@@]21C (stereo partly specified)
- GI50 [1]: > 100 µM (inactive)
- GI50 [2]: > 100 µM (inactive)
- GI50 [3]: > 100 µM (inactive)
- GI50 [4]: > 100 µM (inactive)
- GI50 [5]: > 100 µM (inactive)
- GI50 [8]: 49 µM (inactive)
- GI50 [9]: > 100 µM (inactive)

SMILES: CCOC(=O)Nc1ccc(S(=O)(=O)I)cc1.CCOC(=O)Nc1ccc(S(=O)(=O)I)cc1.CNC(=O)N=O.NC(=O)OCCCl
- GI50 [1]: > 100 µM (inactive)
- GI50 [3]: > 100 µM (inactive)
- GI50 [4]: > 100 µM (inactive)
- GI50 [7]: > 100 µM (inactive)
- GI50 [8]: > 100 µM (inactive)
- GI50 [9]: > 100 µM (inactive)

SMILES: COc1cc(/C=C2/C(=O)N(C(=O)OCc3ccccc3)C(Cc3cc(OC)c(OC)c(C)c3OC)C(=O)N2Cc2ccccc2)c(OC)c(C)c1OC (stereo unspecified)
- GI50 [1]: > 100 µM (inactive)
- GI50 [2]: 40.6 µM (inactive)
- GI50 [6]: 95.3 µM (inactive)
- GI50 [3]: > 100 µM (inactive)
- GI50 [4]: 9.42 µM (inactive)
- GI50 [5]: 69.7 µM (inactive)
- GI50 [7]: > 100 µM (inactive)

SMILES: COc1cc2c(c(OC)c1OC)-c1[nH]ncc1CC2
- GI50 [1]: > 100 µM (inactive)
- GI50 [2]: > 100 µM (inactive)
- GI50 [6]: > 100 µM (inactive)
- GI50 [3]: > 100 µM (inactive)
- GI50 [4]: > 100 µM (inactive)
- GI50 [5]: > 100 µM (inactive)
- GI50 [8]: > 100 µM (inactive)
- GI50 [9]: > 100 µM (inactive)

SMILES: OCCCc1cnco1
- GI50 [1]: > 100 µM (inactive)
- GI50 [2]: > 100 µM (inactive)
- GI50 [6]: > 100 µM (inactive)
- GI50 [3]: > 100 µM (inactive)
- GI50 [4]: > 100 µM (inactive)
- GI50 [5]: > 100 µM (inactive)
- GI50 [8]: > 100 µM (inactive)
- GI50 [9]: > 100 µM (inactive)

SMILES: C/C(C=O)=C1\C(O)C[C@]1(C)C1CC(C)(C)CC1O (stereo partly specified)
- GI50 [1]: > 100 µM (inactive)
- GI50 [2]: > 100 µM (inactive)
- GI50 [3]: > 100 µM (inactive)
- GI50 [4]: 57.1 µM (inactive)
- GI50 [5]: > 100 µM (inactive)
- GI50 [8]: > 100 µM (inactive)

SMILES: C/C(CC(=O)NCCc1ccccc1)=N\NS(=O)(=O)c1ccc(C)cc1
- GI50 [1]: > 100 µM (inactive)
- GI50 [2]: > 100 µM (inactive)
- GI50 [3]: > 100 µM (inactive)
- GI50 [4]: > 100 µM (inactive)
- GI50 [5]: > 100 µM (inactive)
- GI50 [7]: > 100 µM (inactive)
- GI50 [8]: > 100 µM (inactive)
- GI50 [9]: > 100 µM (inactive)

SMILES: C=C(CCCO)[C@@H]1CC[C@@](C)(O)[C@H]1C
- GI50 [1]: > 10 µM (inactive)
- GI50 [2]: > 100 µM (inactive)
- GI50 [6]: > 100 µM (inactive)
- GI50 [3]: > 100 µM (inactive)
- GI50 [4]: > 100 µM (inactive)
- GI50 [5]: > 100 µM (inactive)
- GI50 [7]: > 100 µM (inactive)
- GI50 [8]: > 100 µM (inactive)
- GI50 [9]: > 100 µM (inactive)

SMILES: CN(C)c1ccc(N=O)c(O)c1.CN(C)c1ccc(N=O)c(O)c1.[SiH4]
- GI50 [1]: 8.28 µM (inactive)
- GI50 [6]: 12.1 µM (inactive)
- GI50 [3]: 4.65 µM (inactive)
- GI50 [4]: 5.64 µM (inactive)
- GI50 [5]: 5.56 µM (inactive)
- GI50 [9]: 9.4 µM (inactive)

SMILES: O=C(/C=C/c1ccccc1F)C(c1ccccc1)c1ccccc1
- GI50 [1]: 3.24 µM (inactive)
- GI50 [2]: 3.85 µM (inactive)
- GI50 [3]: 3.8 µM (inactive)
- GI50 [4]: 3.37 µM (inactive)
- GI50 [8]: 5.93 µM (inactive)
- GI50 [9]: 1.99 µM (inactive)

SMILES: Oc1ncc(N(CCCl)CCCl)c(O)n1 [URACIL MUSTARD]
- GI50 [1]: 78.3 µM (inactive)
- GI50 [2]: 4.55 µM (inactive)
- GI50 [6]: 51.6 µM (inactive)
- GI50 [3]: 69.5 µM (inactive)
- GI50 [4]: 71.4 µM (inactive)
- GI50 [5]: 63.2 µM (inactive)
- GI50 [8]: 79.6 µM (inactive)
- GI50 [9]: 23 µM (inactive)

SMILES: CC(C)c1cccc(C(C)C)c1N1C(=O)C(=O)C(c2nc3ccccc3o2)C(=O)C1=O
- GI50 [1]: 31.6 µM (inactive)
- GI50 [2]: 68.2 µM (inactive)
- GI50 [3]: 79.1 µM (inactive)
- GI50 [4]: 42.2 µM (inactive)
- GI50 [5]: 63.4 µM (inactive)
- GI50 [7]: > 100 µM (inactive)
- GI50 [8]: > 100 µM (inactive)
- GI50 [9]: 38.5 µM (inactive)

SMILES: O=C(c1ccccc1)[C@@H]1C[C@H](Sc2ccccc2)c2cc(Cl)ccc2N1
- GI50 [1]: 23.4 µM (inactive)
- GI50 [2]: 24 µM (inactive)
- GI50 [6]: > 100 µM (inactive)
- GI50 [3]: 26.9 µM (inactive)
- GI50 [4]: 24 µM (inactive)
- GI50 [5]: 30.1 µM (inactive)
- GI50 [7]: 28.1 µM (inactive)
- GI50 [8]: 36.9 µM (inactive)
- GI50 [9]: 18.9 µM (inactive)

SMILES: CC1(C)C(=O)/C=C\C(=O)C(C)(C)C2=CC=C(O2)C(C)(C)C(=O)C(Br)C(Br)C(=O)C(C)(C)C2=CC=C1O2 (stereo unspecified)
- GI50 [1]: 13.6 µM (inactive)
- GI50 [2]: 33.3 µM (inactive)
- GI50 [6]: > 100 µM (inactive)
- GI50 [3]: > 100 µM (inactive)
- GI50 [4]: 27.9 µM (inactive)
- GI50 [5]: 53.7 µM (inactive)
- GI50 [7]: > 100 µM (inactive)
- GI50 [8]: 41.8 µM (inactive)
- GI50 [9]: > 67.5 µM (inactive)

SMILES: O=C(CCC(=O)Nc1ccc(Cl)c(Cl)c1)CC(=O)c1ccc(Br)cc1
- GI50 [1]: > 100 µM (inactive)
- GI50 [6]: > 100 µM (inactive)
- GI50 [3]: > 100 µM (inactive)
- GI50 [4]: 61.8 µM (inactive)
- GI50 [5]: > 100 µM (inactive)
- GI50 [7]: > 100 µM (inactive)
- GI50 [8]: > 100 µM (inactive)
- GI50 [9]: > 100 µM (inactive)

SMILES: CS/C(=N/C(=O)c1ccccc1)SCCS/C(=N\C(=O)c1ccccc1)SC
- GI50 [1]: > 100 µM (inactive)
- GI50 [2]: > 100 µM (inactive)
- GI50 [3]: > 100 µM (inactive)
- GI50 [4]: > 100 µM (inactive)
- GI50 [5]: > 100 µM (inactive)
- GI50 [7]: > 100 µM (inactive)
- GI50 [8]: 66.8 µM (inactive)
- GI50 [9]: > 100 µM (inactive)

SMILES: Nc1ccc(C(=O)NN2C(=O)C(Cl)C2c2ccccc2)cc1 (stereo unspecified)
- GI50 [1]: > 100 µM (inactive)
- GI50 [2]: > 100 µM (inactive)
- GI50 [3]: > 100 µM (inactive)
- GI50 [4]: > 100 µM (inactive)
- GI50 [5]: > 100 µM (inactive)
- GI50 [8]: > 100 µM (inactive)
- GI50 [9]: > 100 µM (inactive)

SMILES: O=Cc1cc2c(s1)C(=O)c1sccc1C2=O
- GI50 [1]: 0.351 µM (active)
- GI50 [2]: 0.168 µM (active)
- GI50 [6]: 0.183 µM (active)
- GI50 [3]: 2.1 µM (inactive)
- GI50 [4]: 0.2 µM (active)
- GI50 [5]: 0.0237 µM (active)
- GI50 [8]: 1.41 µM (inactive)
- GI50 [9]: 1.26 µM (inactive)

SMILES: COc1cc(/C=C2\C(=O)N(C(=O)Cc3ccccc3)N=C2C)cc(OC)c1OC
- GI50 [1]: > 100 µM (inactive)
- GI50 [2]: > 100 µM (inactive)
- GI50 [6]: > 100 µM (inactive)
- GI50 [5]: > 100 µM (inactive)
- GI50 [8]: > 100 µM (inactive)
- GI50 [9]: > 100 µM (inactive)

SMILES: COc1ccc(C(=O)O/N=C2/CCC/C2=C\c2ccccc2)cc1
- GI50 [1]: > 100 µM (inactive)
- GI50 [2]: > 100 µM (inactive)
- GI50 [6]: > 100 µM (inactive)
- GI50 [3]: > 100 µM (inactive)
- GI50 [4]: > 100 µM (inactive)
- GI50 [5]: > 100 µM (inactive)
- GI50 [7]: > 100 µM (inactive)
- GI50 [8]: > 68.5 µM (inactive)
- GI50 [9]: > 100 µM (inactive)
